Assay results published in patent US9464071B2 (priority 2010, dated 2016).
Where “and” joins values, the source holds several entries; their conditions need not be identical. Equal entries are not always repeated. Structures can show the parent of a compound that is named as a salt.

| melting point | Compound |
| --- | --- |
| 187.39 °C and 188 °C | COc1cc(OC)cc(N(C[C@@H](O)CO)c2ccc3ncc(-c4cnn(C)c4)nc3c2)c1 (single isomer, unassigned) [Compound 97] |
| 132.82 °C | COCC(O)CN(c1cc(OC)cc(OC)c1)c1ccc2ncc(-c3cnn(C)c3)nc2c1 (stereo not shown) [Compound 397] |
| > 260 °C | COc1cc(OC)cc(N(CCN2C[C@@H]3C[C@H]2CN3)c2ccc3ncc(-c4cnn(C)c4)nc3c2)c1 (as salt: HCl) [Compound 621] |
| 221 °C and 220.78 °C | COc1cc(OC)cc(N(CC2CC2)c2ccc3ncc(-c4cnn(CCC5CCNCC5)c4)nc3c2)c1 |
| 132 °C | COc1cc(C)cc(N(CC2CC2)c2ccc3ncc(-c4cnn(C)c4)nc3c2)c1 [Compound 228] |
| 157 °C and 156 °C | COc1cc(OC)cc(N(CC#CCO)c2ccc3ncc(-c4cnn(C)c4)nc3c2)c1 |
| 196.25 °C | COc1cc(OC)cc(N(CCCC#N)c2ccc3ncc(-c4cnn(C)c4)nc3c2)c1 [Compound 242] |
| 80 °C | COc1cc(OCCN)cc(N(CC2CC2)c2ccc3ncc(-c4cnn(C)c4)nc3c2)c1 [Compound 32] |
| 104.64 °C | COCCNC(=O)C(C)(C)n1cc(-c2cnc3ccc(N(CC4CC4)c4cc(OC)cc(OC)c4)cc3n2)cn1 |
| 125 °C | COc1cc(OC)cc(N(CCCN2CCC(F)C2)c2ccc3ncc(-c4cnn(C)c4)nc3c2)c1 (stereo not shown) |
| 180 to 182 °C and 181 °C | CNCCN(c1cc(OC)cc(OC)c1)c1ccc2ncc(-c3cnn(C)c3)nc2c1 |
| 130 °C | COc1cc(OC)cc(N(CCn2cccc2)c2ccc3ncc(-c4cnn(C)c4)nc3c2)c1 (as salt: HCl) |

Second part, the compound before the results:

| Compound | melting point |
| --- | --- |
| COc1cc(OC)cc(N(CCCn2cccn2)c2ccc3ncc(-c4cnn(C)c4)nc3c2)c1 [Compound 448] | 80 °C |
| COc1cc(OC)cc(N(CC2CN(Cc3ccccc3)CCN2Cc2ccccc2)c2ccc3ncc(-c4cnn(C)c4)nc3c2)c1 (stereo not shown) | 148 °C |
| COc1cccnc1C#CCN(c1ccc2ncc(-c3cnn(C)c3)nc2c1)c1c(F)c(OC)cc(OC)c1F | 202 °C |
| COc1cc(OC)cc(N(Cc2nc(C)c[nH]2)c2ccc3ncc(-c4cnn(C)c4)nc3c2)c1 (as salt: HCl) | 188 °C |
| COc1cc(OC)cc(N(CCNC2CC(C)(C)NC(C)(C)C2)c2ccc3ncc(-c4cnn(C)c4)nc3c2)c1 | 80 °C |
| COc1cc(OC)cc(N(CC#Cc2ccc(C)cn2)c2ccc3ncc(-c4cnn(C)c4)nc3c2)c1 | 155 °C |
| COc1cc(OC)cc(N(Cc2cccnc2)c2ccc3ncc(-c4cnn(C)c4)nc3c2)c1 [Compound 568] | 164.5 °C |
| COc1cc(OC)cc(N(CC#Cc2cc(OC)nc(OC)n2)c2ccc3ncc(-c4cnn(C)c4)nc3c2)c1 [Compound 913] | 170 °C |
| COc1cc(OC)cc(N(CCNC(C)C)c2ccc3ncc(-c4cnn(CCCN5CCN(CCO)CC5)c4)nc3c2)c1 (as salt: HCl) [Compound 644] | 96 °C |
| COc1cc(OC)cc(N(Cc2ccccc2)c2ccc3ncc(-c4cnn(C)c4)nc3c2)c1 | 133.89 °C |
